According to PubChem BioAssay AID651856 (Broad Institute, 2012):

System: non-replicating M. tuberculosis, luciferase expression
Experiment: non-replicating M. tuberculosis inhibition, confirmation, luciferase expression (AID 651856)

Compound	IC90
O=S(Cc1ccccc1)c1nnc(-c2ccccc2)o1 (stereo not drawn)	1 µM
Clc1ccc(-c2nnc(SCc3cn(Cc4ccccc4)nn3)o2)cc1	4 µM
O=S(=O)(Cc1ccccc1)c1nnc(-c2ccccc2)o1	4 µM
Fc1ccc(Cn2cc(CSc3nnc(-c4ccc(Cl)cc4)o3)nn2)cc1	2 µM
c1ccc(CSc2nnc(-c3ccccc3)o2)cc1	16 µM
O=S(=O)(Cc1cn(Cc2ccccc2)nn1)c1nnc(-c2ccc(Cl)cc2)o1	8 µM
O=S(Cc1cn(Cc2ccccc2)nn1)c1nnc(-c2ccc(Cl)cc2)o1 (stereo not drawn)	1 µM
O=S(Cc1cn(Cc2ccc(F)cc2)nn1)c1nnc(-c2ccc(Cl)cc2)o1 (stereo not drawn)	4 µM
